From ChEMBL document CHEMBL4725227, “Dual-Target Inhibitors Based on HDACs: Novel Antitumor Agents for Cancer Therapy” (J Med Chem, 2020)

Legend:
[1] = molecular target: Histone deacetylase; experiment: Inhibition of HDAC (unknown origin); type: protein assay, Homo sapiens
[2] = tested on: THP-1; experiment: Growth inhibition of human THP-1 cells; type: functional
[3] = molecular target: T1, Histone deacetylase 1 (Homo sapiens, UniProt Q13547); experiment: Inhibition of HDAC1 (unknown origin)
[4] = tested on: MCF7; experiment: Cytotoxicity against human MCF7 cells assessed as reduction in cell viability by MTT assay; type: functional, cell-based
[5] = molecular target: Vascular endothelial growth factor receptor 2 (Homo sapiens, UniProt P35968); experiment: Inhibition of VGFR2 (unknown origin)
Vascular endothelial growth factor receptor 2, sequence (P35968 whole entry): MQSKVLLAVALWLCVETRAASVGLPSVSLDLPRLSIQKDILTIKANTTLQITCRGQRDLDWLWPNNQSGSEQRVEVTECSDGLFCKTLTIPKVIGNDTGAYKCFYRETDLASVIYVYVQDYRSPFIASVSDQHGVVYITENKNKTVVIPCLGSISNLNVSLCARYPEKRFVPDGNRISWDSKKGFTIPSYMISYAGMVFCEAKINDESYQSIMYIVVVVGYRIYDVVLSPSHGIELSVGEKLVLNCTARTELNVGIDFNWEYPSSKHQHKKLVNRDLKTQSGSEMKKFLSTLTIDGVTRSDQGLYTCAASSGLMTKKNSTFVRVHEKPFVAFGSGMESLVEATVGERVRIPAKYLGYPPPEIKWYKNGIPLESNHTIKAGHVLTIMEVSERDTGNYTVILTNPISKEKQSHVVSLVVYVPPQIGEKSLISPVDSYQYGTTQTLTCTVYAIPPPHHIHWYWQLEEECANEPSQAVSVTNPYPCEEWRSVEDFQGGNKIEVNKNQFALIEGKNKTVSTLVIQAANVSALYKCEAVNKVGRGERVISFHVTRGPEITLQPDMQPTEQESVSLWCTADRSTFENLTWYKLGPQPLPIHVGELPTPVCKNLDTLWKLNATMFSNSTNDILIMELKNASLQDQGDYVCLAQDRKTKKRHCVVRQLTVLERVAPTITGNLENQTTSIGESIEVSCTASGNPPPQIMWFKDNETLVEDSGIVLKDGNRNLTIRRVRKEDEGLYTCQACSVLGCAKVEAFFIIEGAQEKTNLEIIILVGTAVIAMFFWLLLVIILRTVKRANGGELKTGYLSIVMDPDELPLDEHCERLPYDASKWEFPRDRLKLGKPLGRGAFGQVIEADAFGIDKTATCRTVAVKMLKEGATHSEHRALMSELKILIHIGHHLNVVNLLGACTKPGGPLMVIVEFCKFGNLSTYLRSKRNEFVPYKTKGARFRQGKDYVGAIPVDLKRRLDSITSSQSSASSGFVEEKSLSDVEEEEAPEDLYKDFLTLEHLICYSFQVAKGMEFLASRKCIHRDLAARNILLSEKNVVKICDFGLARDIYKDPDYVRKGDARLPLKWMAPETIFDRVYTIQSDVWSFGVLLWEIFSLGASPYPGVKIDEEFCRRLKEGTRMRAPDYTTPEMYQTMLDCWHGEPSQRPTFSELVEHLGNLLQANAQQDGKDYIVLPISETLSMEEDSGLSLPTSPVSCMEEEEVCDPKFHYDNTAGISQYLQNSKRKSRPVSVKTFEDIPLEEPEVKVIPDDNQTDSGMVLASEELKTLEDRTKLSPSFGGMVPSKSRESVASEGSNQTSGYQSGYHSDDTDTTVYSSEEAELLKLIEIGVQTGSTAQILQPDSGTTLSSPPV

[6] = tested on: A-431; experiment: Cytotoxicity against human A-431 cells assessed as reduction in cell viability by MTT assay; type: functional, cell-based
[7] = tested on: A549; experiment: Cytotoxicity against human A549 cells assessed as reduction in cell viability by MTT assay
[8] = tested on: MCF7; experiment: Cytotoxicity against human MCF7 cells assessed as reduction in cell viability in presence of SAHA by MTT assay; type: functional, cell-based
[9] = tested on: DU-145; experiment: Cytotoxicity against human DU-145 cells assessed as reduction in cell viability; type: functional, cell-based
[10] = tested on: MCF7; experiment: Cytotoxicity against human MCF7 cells assessed as reduction in cell viability; type: functional, cell-based
[11] = molecular target: T2, Bromodomain-containing protein 4 (Homo sapiens, UniProt O60885); experiment: Inhibition of BRD4 (unknown origin)
[12] = molecular target: T3, Epidermal growth factor receptor (Homo sapiens, UniProt P00533); experiment: Inhibition of EGFR (unknown origin)
T3 sequence (P00533 whole entry): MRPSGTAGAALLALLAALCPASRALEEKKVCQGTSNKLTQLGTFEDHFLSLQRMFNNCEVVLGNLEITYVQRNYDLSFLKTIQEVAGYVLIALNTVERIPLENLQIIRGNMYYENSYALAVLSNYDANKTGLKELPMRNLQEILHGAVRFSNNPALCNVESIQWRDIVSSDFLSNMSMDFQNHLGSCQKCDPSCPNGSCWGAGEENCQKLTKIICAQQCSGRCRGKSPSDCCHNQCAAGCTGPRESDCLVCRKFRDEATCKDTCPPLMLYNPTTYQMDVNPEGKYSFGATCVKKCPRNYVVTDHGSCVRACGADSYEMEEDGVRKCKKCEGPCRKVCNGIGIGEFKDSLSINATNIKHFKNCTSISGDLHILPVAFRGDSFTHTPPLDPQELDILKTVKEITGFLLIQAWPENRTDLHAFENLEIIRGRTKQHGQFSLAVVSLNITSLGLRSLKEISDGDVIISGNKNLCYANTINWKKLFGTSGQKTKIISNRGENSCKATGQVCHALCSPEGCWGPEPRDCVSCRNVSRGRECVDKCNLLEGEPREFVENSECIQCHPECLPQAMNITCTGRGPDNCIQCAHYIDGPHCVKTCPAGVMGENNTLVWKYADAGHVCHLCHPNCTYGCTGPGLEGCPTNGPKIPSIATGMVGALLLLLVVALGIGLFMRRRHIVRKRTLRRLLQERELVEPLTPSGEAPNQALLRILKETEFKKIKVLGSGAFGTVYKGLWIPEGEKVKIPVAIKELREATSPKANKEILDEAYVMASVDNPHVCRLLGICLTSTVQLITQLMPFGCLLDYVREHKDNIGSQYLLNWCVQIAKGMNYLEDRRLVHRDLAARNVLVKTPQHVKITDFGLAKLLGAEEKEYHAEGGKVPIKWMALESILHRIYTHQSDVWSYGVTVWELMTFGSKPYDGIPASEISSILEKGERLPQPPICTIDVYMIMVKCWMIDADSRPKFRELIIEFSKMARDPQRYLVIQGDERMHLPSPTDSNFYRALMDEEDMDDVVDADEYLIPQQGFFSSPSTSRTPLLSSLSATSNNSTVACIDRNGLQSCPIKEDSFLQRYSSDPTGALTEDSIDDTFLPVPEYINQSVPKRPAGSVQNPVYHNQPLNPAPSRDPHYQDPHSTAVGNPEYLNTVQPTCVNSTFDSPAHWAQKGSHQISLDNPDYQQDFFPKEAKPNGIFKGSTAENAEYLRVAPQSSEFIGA

[13] = tested on: MDA-MB-468; experiment: Cytotoxicity against human MDA-MB-468 cells assessed as reduction in cell viability by MTT assay; type: functional, cell-based
[14] = tested on: KG-1; experiment: Cytotoxicity against human KG-1 cells assessed as reduction in cell viability by MTT assay; type: functional, cell-based
[15] = tested on: MDA-MB-231; experiment: Cytotoxicity against human MDA-MB-231 cells assessed as reduction in cell viability by MTT assay; type: functional, cell-based
[16] = tested on: HT-29; experiment: Cytotoxicity against human HT-29 cells assessed as reduction in cell viability by MTT assay; type: functional, cell-based
[17] = tested on: HeLa; experiment: Cytotoxicity against human HeLa cells assessed as reduction in cell viability by MTT assay; type: functional, cell-based
[18] = molecular target: Protein deacetylase HDAC6 (Homo sapiens, UniProt Q9UBN7); experiment: Inhibition of recombinant human HDAC6 expressed in baculovirus expression system using Ac-Lys-Tyr-Lys (epsilon-acetyl)-AMC as substrate after 24 hrs by fluorescence assay
[19] = molecular target: Histone deacetylase 3 (Homo sapiens, UniProt O15379); experiment: Inhibition of recombinant human HDAC3 expressed in baculovirus expression system using Ac-Lys-Tyr-Lys (epsilon-acetyl)-AMC as substrate after 24 hrs by fluorescence assay
Histone deacetylase 3, sequence (O15379 whole entry): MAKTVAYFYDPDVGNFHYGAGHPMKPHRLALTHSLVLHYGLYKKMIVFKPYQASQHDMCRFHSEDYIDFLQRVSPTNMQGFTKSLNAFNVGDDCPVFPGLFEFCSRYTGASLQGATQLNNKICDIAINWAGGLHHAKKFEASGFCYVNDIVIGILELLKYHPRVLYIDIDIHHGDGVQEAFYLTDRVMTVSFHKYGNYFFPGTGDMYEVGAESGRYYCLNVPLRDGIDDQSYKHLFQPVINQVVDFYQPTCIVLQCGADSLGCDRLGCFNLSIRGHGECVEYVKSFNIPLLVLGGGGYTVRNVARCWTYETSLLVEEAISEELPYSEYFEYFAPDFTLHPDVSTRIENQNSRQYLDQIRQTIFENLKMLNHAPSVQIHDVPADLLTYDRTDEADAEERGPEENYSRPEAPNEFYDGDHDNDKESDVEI

[20] = molecular target: T3, Epidermal growth factor receptor; experiment: Inhibition of GST-tagged EGFR (unknown origin) at 10 ug/ml using biotinylated peptide as substrate in presence of ATP relative to control; conditions: dose 10.0 µg/ml
[21] = molecular target: Receptor tyrosine-protein kinase erbB-2 (Homo sapiens) (UniProt P04626); experiment: Inhibition of HER2 (unknown origin) at 10 ug/ml using biotinylated peptide as substrate in presence of ATP relative to control; conditions: dose 10.0 µg/ml
Receptor tyrosine-protein kinase erbB-2 (Homo sapiens), sequence (P04626 whole entry): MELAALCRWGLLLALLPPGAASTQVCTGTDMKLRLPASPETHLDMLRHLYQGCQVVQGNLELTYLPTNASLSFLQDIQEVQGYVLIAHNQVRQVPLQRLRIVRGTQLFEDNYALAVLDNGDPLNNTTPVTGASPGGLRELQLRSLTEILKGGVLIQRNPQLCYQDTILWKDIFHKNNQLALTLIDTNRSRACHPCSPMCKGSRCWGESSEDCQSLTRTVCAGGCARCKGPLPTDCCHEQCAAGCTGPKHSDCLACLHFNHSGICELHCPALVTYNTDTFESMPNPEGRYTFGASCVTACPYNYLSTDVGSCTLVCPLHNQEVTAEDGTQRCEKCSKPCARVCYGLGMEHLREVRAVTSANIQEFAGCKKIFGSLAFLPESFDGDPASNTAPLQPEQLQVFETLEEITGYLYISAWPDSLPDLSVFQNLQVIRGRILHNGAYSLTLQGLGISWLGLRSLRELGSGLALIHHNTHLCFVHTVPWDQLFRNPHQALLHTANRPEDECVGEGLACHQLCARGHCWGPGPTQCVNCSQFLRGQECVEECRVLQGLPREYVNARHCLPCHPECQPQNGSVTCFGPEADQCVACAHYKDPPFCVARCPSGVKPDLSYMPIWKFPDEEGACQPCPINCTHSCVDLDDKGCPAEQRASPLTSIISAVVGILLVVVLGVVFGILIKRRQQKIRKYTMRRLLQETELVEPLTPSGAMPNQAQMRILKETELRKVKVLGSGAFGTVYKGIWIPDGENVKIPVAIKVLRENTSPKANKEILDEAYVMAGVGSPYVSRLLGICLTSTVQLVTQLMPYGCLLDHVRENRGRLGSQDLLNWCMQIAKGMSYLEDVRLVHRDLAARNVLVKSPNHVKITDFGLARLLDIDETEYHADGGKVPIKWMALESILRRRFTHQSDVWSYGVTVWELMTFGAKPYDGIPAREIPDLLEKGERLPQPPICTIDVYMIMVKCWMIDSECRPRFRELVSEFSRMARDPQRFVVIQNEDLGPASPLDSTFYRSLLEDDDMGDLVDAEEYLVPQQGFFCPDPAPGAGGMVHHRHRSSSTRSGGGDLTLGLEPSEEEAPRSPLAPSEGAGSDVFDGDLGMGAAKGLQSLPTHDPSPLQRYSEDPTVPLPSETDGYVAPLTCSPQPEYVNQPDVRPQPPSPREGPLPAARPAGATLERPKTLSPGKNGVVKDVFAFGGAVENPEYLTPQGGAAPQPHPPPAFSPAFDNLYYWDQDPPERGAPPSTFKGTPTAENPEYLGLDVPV

[22] = molecular target: T1, Histone deacetylase 1; experiment: Inhibition of recombinant human HDAC1 expressed in baculovirus expression system using Ac-Lys-Tyr-Lys (epsilon-acetyl)-AMC as substrate after 24 hrs by fluorescence assay
[23] = molecular target: T2, Bromodomain-containing protein 4; experiment: Inhibition of BRD4 BD2 domain (unknown origin)
[24] = tested on: OCI-AML2; experiment: Antiproliferative activity against human OCI-AML2 cells by MTT assay; type: functional, cell-based
[25] = tested on: MV4-11; experiment: Antiproliferative activity against human MV4-11 cells by MTT assay; type: functional, cell-based
[26] = tested on: OCI-AML-3; experiment: Antiproliferative activity against human OCI-AML-3 cells by MTT assay; type: functional, cell-based

T1 sequence (Q13547 whole entry): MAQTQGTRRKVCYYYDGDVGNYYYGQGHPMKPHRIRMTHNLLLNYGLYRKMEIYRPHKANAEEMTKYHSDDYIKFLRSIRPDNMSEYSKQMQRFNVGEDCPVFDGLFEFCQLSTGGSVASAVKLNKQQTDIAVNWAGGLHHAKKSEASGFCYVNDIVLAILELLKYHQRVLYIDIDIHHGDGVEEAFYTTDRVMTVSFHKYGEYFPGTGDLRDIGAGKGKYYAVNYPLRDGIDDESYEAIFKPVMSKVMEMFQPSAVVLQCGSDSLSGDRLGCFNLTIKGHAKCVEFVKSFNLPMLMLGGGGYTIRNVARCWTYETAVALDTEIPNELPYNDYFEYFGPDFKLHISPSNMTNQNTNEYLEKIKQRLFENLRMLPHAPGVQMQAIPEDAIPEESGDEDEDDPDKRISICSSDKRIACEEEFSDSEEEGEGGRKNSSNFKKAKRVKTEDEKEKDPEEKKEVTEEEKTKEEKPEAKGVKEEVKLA

SMILES | IC50 [1] | GI50 [2] | other results
C#Cc1cccc(NC(=O)c2cc(OCCCCCCC(=O)NO)ccc2O)c1 | < 1000 nM |  | 
Cn1cc(-c2ccnc(Nc3ccc(C(=O)Nc4ccccc4N)cc3)n2)c2ccccc21 | < 1000 nM |  | 
COc1cc(C(=O)NCCCCC(=O)NO)ccc1Nc1nccc(-c2cn(C)c3ccccc23)n1 | < 1000 nM |  | 
Cc1noc(C)c1-c1ccc2c(c1)c(Cc1ccccc1)cn2CCCCCC(=O)NO | 291 nM | 15500 nM | 
CC(=O)N1c2ccc(-c3ccc(NC(=O)CCCCCCC(=O)NO)cc3)cc2[C@H](NC(=O)OC(C)C)C[C@@H]1C |  |  | IC50 [3]: 150 nM
COc1cc(OC)c2c(=O)[nH]c(-c3ccc(OCc4ccc(/C=C/C(=O)NO)cc4)cc3)nc2c1 | 291 nM | 15500 nM | 
Cn1cc(-c2ccnc(Nc3ccc(C(=O)NCCCCCC(=O)NO)cc3)n2)c2ccccc21 | < 1000 nM |  | 
COc1cc(O)c(C(=O)Nc2ccc(F)c(Cl)c2)cc1NC(=O)CCCCCC(=O)NO | < 1000 nM |  | 
Cc1cccc(Cc2cn(CCCCCC(=O)NO)c3ccc(-c4c(C)noc4C)cc23)c1 | 291 nM | 15500 nM | 
O=C(CCCCCC(=O)Nc1ccc(O)c(C(=O)Nc2ccc(F)c(Cl)c2)c1)NO | < 1000 nM |  | 
COc1cc(OC)c2c(=O)[nH]c(-c3ccc(Oc4ccc(C(=O)NO)cn4)cc3)nc2c1 | 291 nM | 15500 nM | 
Cc1noc(C)c1-c1ccc2c(c1)c(CCc1ccccc1)cn2CCCCCC(=O)NO | 291 nM | 15500 nM | 
COc1cc(OC)c2c(=O)[nH]c(-c3ccc(OCCCCCCCC(=O)NO)cc3)nc2c1 | 291 nM | 15500 nM | 
COc1cc2ncnc(Nc3ccc(Br)cc3)c2cc1OCCCCCC(=O)NO | 2.2 nM |  | IC50 [4]: 850 nM; IC50 [5]: 74 nM
C#Cc1cccc(Nc2ncnc3cc(OCCOC)c(OCCOC)cc23)c1 [ERLOTINIB] |  |  | IC50 [6]: 1410 nM; IC50 [7]: 11800 nM; IC50 [8]: 2700 nM
O=C(CCCCCC(=O)Nc1ccc(O)c(C(=O)Nc2ccc(Cl)c(Cl)c2)c1)NO | < 1000 nM |  | 
C=CC(=O)Nc1cc(Nc2nccc(-c3cn(C)c4ccccc34)n2)c(OC)cc1N(C)CCN(C)C [OSIMERTINIB] | < 1000 nM |  | 
COC(c1c(F)cccc1Cl)c1c[nH]c2ncc(-c3c(C)noc3C)cc12 (stereo unspecified) | 291 nM | 15500 nM | 
Cc1ccccc1OS(=O)(=O)C1CC2OC1C(c1ccc(NC(=O)CCCCCCC(=O)NO)cc1)=C2c1ccc(O)cc1 (stereo unspecified) |  |  | IC50 [9]: > 100000 nM; IC50 [3]: 22 nM; IC50 [10]: 7900 nM
Cc1cccc(Cc2cn(CCCCCCC(=O)NO)c3ccc(-c4c(C)noc4C)cc23)c1 | 291 nM | 15500 nM | 
COc1cc(OC)c2c(=O)[nH]c(-c3cc(C)c(OCCCCC(=O)NO)c(C)c3)nc2c1 |  |  | IC50 [3]: 150 nM; IC50 [11]: 670 nM
COc1cc(OC)c2c(=O)[nH]c(-c3cc(C)c(O)c(C)c3)nc2c1 | 291000 nM | 15500 nM | 

SMILES | IC50 [1] | GI50 [2] | other results
C#Cc1cccc(NC(=O)c2cc(NC(=O)CCCCCC(=O)NO)ccc2O)c1 | < 1000 nM |  | 
Cn1cc(-c2ccnc(Nc3ccc(C(=O)NCCCCCCC(=O)NO)cc3)n2)c2ccccc21 | <= 1 uM |  | IC50 [12]: 5700 nM; IC50 [13]: 230 nM; IC50 [14]: 240 nM; IC50 [15]: 600 nM; IC50 [16]: 790 nM; IC50 [17]: 1850 nM
COc1cc2/c(=N/c3ccc(Br)cc3F)nc[nH]c2cc1OCC1CCN(C)CC1 [VANDETANIB] |  |  | IC50 [4]: 18500 nM
O=C(CCCCOc1ccccc1C(=O)Nc1cccc2[nH]cnc12)NO | 2700 nM |  | IC50 [3]: 150 nM; IC50 [11]: 260 nM
COc1cc(OC)c2c(=O)[nH]c(-c3ccc(OCCCCC(=O)NO)cc3)nc2c1 | 291 nM | 15500 nM | 
Cc1noc(C)c1-c1ccc2c(c1)c(Cc1ccccc1)cn2CCCCCCC(=O)NO | 291 nM | 15500 nM | 
Cc1ccccc1Cc1cn(CCCCCC(=O)NO)c2ccc(-c3c(C)noc3C)cc12 | 291 nM | 15500 nM | 
Cc1noc(C)c1-c1ccc2c(c1)c(CCc1ccc(F)cc1)cn2CCCCCC(=O)NO | 291 nM | 15500 nM | 
C#Cc1cccc(NC(=O)c2cc(NC(=O)CCCCCCC(=O)NO)ccc2O)c1 | < 1000 nM |  | 
Cc1ccccc1Cc1cn(CCCCCCC(=O)NO)c2ccc(-c3c(C)noc3C)cc12 | 291 nM | 15500 nM | 
C#Cc1cccc(NC(=O)c2cc(NC(=O)CCCCCC(=O)NO)c(OC)cc2O)c1 | < 1000 nM |  | 
COc1cc(OC)c2c(=O)[nH]c(-c3ccc(OCc4cc(C)c(/C=C/C(=O)NO)c(C)c4)cc3)nc2c1 | 291 nM | 15500 nM | 
O=C(CCCCCC(=O)Nc1ccc(O)c(C(=O)Nc2ccc(Cl)c(C(F)(F)F)c2)c1)NO | < 1000 nM |  | 
COc1cc(C(=O)NCCCC(=O)NO)ccc1Nc1nccc(-c2cn(C)c3ccccc23)n1 | < 1000 nM |  | 
O=C(CCCCCCC(=O)Nc1ccccc1)NO [VORINOSTAT] |  |  | IC50 [12]: 900 nM
Cn1cc(-c2ccnc(Nc3ccc(C(=O)NCCCC(=O)NO)cc3)n2)c2ccccc21 | < 1000 nM |  | 
Cc1noc(C)c1-c1ccc2c(c1)c(Cc1cccc(C(F)(F)F)c1)cn2CCCCCC(=O)NO | 291 nM | 15500 nM | 
Cc1sc2c(c1C)C(c1ccc(Cl)cc1)=N[C@@H](CC(=O)OC(C)(C)C)c1nnc(C)n1-2 | 291 nM | 15500 nM | 
O=C(CCCCCC(=O)Nc1ccc(O)c(C(=O)Nc2ccccc2)c1)NO | < 1000 nM |  | 
COCCOc1cc2ncnc(Nc3ccc(/C=C/C(=O)NO)cc3)c2cc1OCCOC |  |  | IC50 [18]: 560 nM; IC50 [19]: 180 nM; inhibition [20]: 70%; inhibition [21]: 84%; IC50 [22]: 160 nM
COc1cc(OC)c2c(=O)[nH]c(-c3ccc(OCCCC(=O)NO)cc3)nc2c1 | 32 nM | 15500 nM | IC50 [23]: 225 nM; IC50 [24]: 1520 nM; IC50 [25]: 1670 nM; IC50 [26]: 1090 nM
COc1cc(OC)c2c(=O)[nH]c(-c3ccc(OCCCCCCC(=O)NO)cc3)nc2c1 | 291 nM | 15500 nM | 

SMILES | IC50 [1] | GI50 [2] | other results
Cn1cc(-c2ccnc(Nc3ccc(C(=O)NCCCCC(=O)NO)cc3)n2)c2ccccc21 | < 1000 nM |  | 
Cc1ccc(Cc2cn(CCCCCCC(=O)NO)c3ccc(-c4c(C)noc4C)cc23)cc1 | 291 nM | 15500 nM | 
COc1cc(C(=O)NCCCCCCC(=O)NO)ccc1Nc1nccc(-c2cn(C)c3ccccc23)n1 | < 1000 nM |  | 
COc1cc(C(=O)NCCC(=O)NO)ccc1Nc1nccc(-c2cn(C)c3ccccc23)n1 | < 1000 nM |  | 
COc1cc(C(=O)NCCCCCC(=O)NO)ccc1Nc1nccc(-c2cn(C)c3ccccc23)n1 | < 1000 nM |  | 
COc1cc(OC)c2c(=O)[nH]c(-c3ccc(OC/C=C/C(=O)NO)cc3)nc2c1 | 291 nM | 15500 nM | 
O=C(CCCCCC(=O)Nc1ccc(O)c(C(=O)Nc2cccc(C(F)(F)F)c2)c1)NO | < 1000 nM |  | 
Cn1cc(-c2ccnc(Nc3ccc(C(=O)NCCC(=O)NO)cc3)n2)c2ccccc21 | < 1000 nM |  | 
Cc1noc(C)c1-c1ccc2c(c1)c(CCc1ccccc1)cn2CCCCCCC(=O)NO | 291 nM | 15500 nM | 
O=C(CCCCCC(=O)Nc1ccc(O)c(C(=O)Nc2cccc(F)c2)c1)NO | < 1000 nM |  | 
COc1cc(OC)c2c(=O)[nH]c(-c3cc(C)c(OCCCCCC(=O)NO)c(C)c3)nc2c1 | 291 nM | 15500 nM | 
O=C(CCCCCC(=O)Nc1ccc(O)c(C(=O)Nc2ccc(F)c(F)c2)c1)NO | < 1000 nM |  | 
Cc1noc(C)c1-c1ccc2c(c1)c(CCc1ccc(F)cc1)cn2CCCCCCC(=O)NO | 291 nM | 15500 nM | 
Cc1ccc(Cc2cn(CCCCCC(=O)NO)c3ccc(-c4c(C)noc4C)cc23)cc1 | 291 nM | 15500 nM | 
Cc1noc(C)c1-c1ccc2c(c1)c(Cc1ccc(F)cc1)cn2CCCCCCC(=O)NO |  |  | IC50 [3]: 150 nM; IC50 [11]: 670 nM
Cc1noc(C)c1-c1ccc2c(c1)c(Cc1ccc(F)cc1)cn2CCCCCC(=O)NO | 291 nM | 15500 nM | 
COc1cc(OC)c2c(=O)[nH]c(-c3ccc(OCCCCCC(=O)NO)cc3)nc2c1 | 291 nM | 15500 nM | 
O=C(CCCCCC(=O)Nc1ccc(O)c(C(=O)Nc2ccc(OCc3cccc(F)c3)c(Cl)c2)c1)NO | < 1000 nM |  | 
Cn1cc(-c2ccnc(Nc3ccc(C(=O)NO)cc3)n2)c2ccccc21 | < 1000 nM |  | 
Cc1noc(C)c1-c1cc(NC(=O)CCCCCC(=O)NO)cc(C(=O)c2ccccc2)c1 |  |  | IC50 [3]: 150 nM; IC50 [11]: 670 nM
